One block for each compound: values may come before it.
What was measured:
Conditions in all cases: 72 h
MDA-MB-453 [1] = test system: MDA-MB-453
How it was run: (§1)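 Breast cancer cell lines in 20 µl suspension were seeded onto 384-well plates pre-loaded with compound dissolved in 5 µl medium, then incubated 72 h. For viability, 2.5 µl CellTiter-Blue was added for 2 h at 37 °C and fluorescence read at 560/590 nm. Each plate was normalised to vehicle and a positive kill control and checked by Z'-factor. EC50 comes from the fitted percent-inhibition dose-response curve, censored at the highest concentration; rows with zero drug sensitivity score were dropped.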

CAL-148 [2] = test system: CAL-148
How it was run: as §1

CAL-51 [3] = test system: CAL-51
How it was run: as §1

CAL-85-1 [4] = test system: CAL-85-1
How it was run: as §1

DU-4475 [5] = test system: DU-4475
How it was run: as §1

HDQ-P1 [6] = test system: HDQ-P1
How it was run: as §1

MDA-MB-436 [7] = test system: MDA-MB-436
How it was run: as §1

HCC1143 [8] = test system: HCC1143
How it was run: as §1

BT-549 [9] = test system: BT-549
How it was run: as §1

Hs578T [10] = test system: Hs578T
How it was run: as §1

CAL-120 [11] = test system: CAL-120
How it was run: as §1

HCC1937 [12] = test system: HCC1937
How it was run: as §1

MFM-223 [13] = test system: MFM-223
How it was run: as §1

HCC1599 [14] = test system: HCC1599
How it was run: as §1

SK-BR-3 [15] = test system: SK-BR-3
How it was run: as §1

BT-474 = test system: BT-474
How it was run: as §1

MDA-MB-231 [16] = test system: MDA-MB-231
How it was run: as §1

MDA-MB-468 [17] = test system: MDA-MB-468
How it was run: as §1

MDA-MB-453 [18] = test system: MDA-MB-453; remark: listed apart in the source
How it was run: (§2)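 Seeding of breast cancer cell lines (20 µl suspension) was done into 384-well plates pre-loaded with compound at 5 concentrations, 10-fold apart, covering a compound-specific 10,000-fold range. The plates were incubated for 72 h, read for CellTox Green fluorescence (485/520 nm), and then read for CellTiter-Glo luminescence after 10 min at room temperature. Every plate was normalised to 0.1 % DMSO and a positive kill control. Curve fitting gave the EC50, censored at the top concentration.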

MDA-MB-436 [19] = test system: MDA-MB-436; remark: listed apart in the source
How it was run: as §2

HCC1143 [20] = test system: HCC1143; remark: listed apart in the source
How it was run: as §2

BT-549 [21] = test system: BT-549; remark: listed apart in the source
How it was run: as §2

Hs578T [22] = test system: Hs578T; remark: listed apart in the source
How it was run: as §2

CAL-148 [23] = test system: CAL-148; remark: listed apart in the source
How it was run: as §2

CAL-51 [24] = test system: CAL-51; remark: listed apart in the source
How it was run: as §2

CAL-120 [25] = test system: CAL-120; remark: listed apart in the source
How it was run: as §2

HCC1937 [26] = test system: HCC1937; remark: listed apart in the source
How it was run: as §2

MFM-223 [27] = test system: MFM-223; remark: listed apart in the source
How it was run: as §2

CAL-85-1 [28] = test system: CAL-85-1; remark: listed apart in the source
How it was run: as §2

HCC1599 [29] = test system: HCC1599; remark: listed apart in the source
How it was run: as §2

SK-BR-3 [30] = test system: SK-BR-3; remark: listed apart in the source
How it was run: as §2

MDA-MB-231 [31] = test system: MDA-MB-231; remark: listed apart in the source
How it was run: as §2

DU-4475 [32] = test system: DU-4475; remark: listed apart in the source
How it was run: as §2

MCF-10A [33] = test system: MCF-10A
How it was run: as §2

BT-549 [34] = test system: BT-549; remark: listed apart in the source
Description: (§3)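 Drug sensitivity and resistance testing (DSRT) of breast cancer cell lines in 384-well plates, 5 concentrations in 10-fold dilutions over a compound-specific 10,000-fold range. After 72 h, cytotoxicity was read by CellTox Green fluorescence and viability by CellTiter-Glo luminescence (multiplexed), normalised to DMSO and benzethonium chloride controls. EC50 is the inflection point of the fitted dose-response curve (bottom asymptote free, so it can be relative for partial curves) and is censored at the highest tested concentration. Rows with DSS 0 (no meaningful response) were excluded.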

Hs578T [35] = test system: Hs578T; remark: listed apart in the source
Description: as §3

CAL-51 [36] = test system: CAL-51; remark: listed apart in the source
Description: as §3

MFM-223 [37] = test system: MFM-223; remark: listed apart in the source
Description: as §3

CAL-85-1 [38] = test system: CAL-85-1; remark: listed apart in the source
Description: as §3

MDA-MB-231 [39] = test system: MDA-MB-231; remark: listed apart in the source
Description: as §3

HDQ-P1 [40] = test system: HDQ-P1; remark: listed apart in the source
Description: as §3

MCF-10A [41] = test system: MCF-10A; remark: listed apart in the source
Description: as §3

MDA-MB-468 [42] = test system: MDA-MB-468; remark: listed apart in the source
Description: as §3

DU-4475 [43] = test system: DU-4475; remark: listed apart in the source
Description: as §3

- EC50, CellTiter-Blue viability (MDA-MB-453 [1]): 125 nM
- EC50, CellTiter-Blue viability (MDA-MB-436 [7]): 376 nM
- EC50, CellTiter-Blue viability (HCC1143 [8]): 206 nM
- EC50, CellTiter-Blue viability (BT-549 [9]): 249 nM
- EC50, CellTiter-Blue viability (HCC1937 [12]): 79.7 nM
- EC50, CellTiter-Blue viability (HCC1599 [14]): 150 nM
- EC50, CellTiter-Blue viability (SK-BR-3 [15]): 123 nM
- EC50, CellTiter-Blue viability (BT-474): 168 nM
- EC50, CellTiter-Blue viability (MDA-MB-231 [16]): 133 nM
- EC50, CellTiter-Blue viability (MDA-MB-468 [17]): 353 nM
- EC50, CellTiter-Glo (MDA-MB-453 [18]): 41.1 nM
- EC50, CellTiter-Glo (MDA-MB-436 [19]): 46.8 nM
- EC50, CellTiter-Glo (HCC1143 [20]): 46.5 nM
- EC50, CellTiter-Glo (BT-549 [21]): 41.9 nM
- EC50, CellTiter-Glo (HCC1937 [26]): 87.8 nM
- EC50, CellTiter-Glo (HCC1599 [29]): 233 nM
- EC50, CellTiter-Glo (SK-BR-3 [30]): 61.4 nM
- EC50, CellTiter-Glo (MDA-MB-231 [31]): 54.1 nM
SMILES: CC(C)(C)c1cnc(CSc2cnc(NC(=O)C3CCNCC3)s2)o1 [SNS-032]
- EC50, CellTiter-Blue viability (CAL-148 [2]): 128 nM
- EC50, CellTiter-Blue viability (CAL-51 [3]): 571 nM
- EC50, CellTiter-Blue viability (CAL-85-1 [4]): 128 nM
- EC50, CellTiter-Blue viability (DU-4475 [5]): 203 nM
- EC50, CellTiter-Blue viability (HDQ-P1 [6]): 110 nM
- EC50, CellTiter-Blue viability (Hs578T [10]): 101 nM
- EC50, CellTiter-Blue viability (CAL-120 [11]): 160 nM
- EC50, CellTiter-Blue viability (MFM-223 [13]): 169 nM
- EC50, CellTiter-Glo (Hs578T [22]): 101 nM
- EC50, CellTiter-Glo (CAL-148 [23]): 33.2 nM
- EC50, CellTiter-Glo (CAL-51 [24]): 17.1 nM
- EC50, CellTiter-Glo (CAL-120 [25]): 102 nM
- EC50, CellTiter-Glo (MFM-223 [27]): 137 nM
- EC50, CellTiter-Glo (CAL-85-1 [28]): 62.8 nM
- EC50, CellTiter-Glo (DU-4475 [32]): 203 nM
- EC50, CellTiter-Glo (MCF-10A [33]): 157 nM
- EC50, CellTox Green (BT-549 [34]): 255 nM
- EC50, CellTox Green (Hs578T [35]): 85.8 nM
- EC50, CellTox Green (CAL-51 [36]): 11.1 nM
- EC50, CellTox Green (MFM-223 [37]): 142 nM
- EC50, CellTox Green (CAL-85-1 [38]): 41.2 nM
- EC50, CellTox Green (MDA-MB-231 [39]): 30.9 nM
- EC50, CellTox Green (HDQ-P1 [40]): 32.2 nM
- EC50, CellTox Green (MCF-10A [41]): 172 nM
- EC50, CellTox Green (MDA-MB-468 [42]): 7580 nM

- EC50, CellTiter-Blue viability (HCC1143 [8]): 23 nM
- EC50, CellTiter-Blue viability (HCC1937 [12]): 1070 nM
- EC50, CellTiter-Blue viability (HCC1599 [14]): 283 nM
- EC50, CellTiter-Blue viability (MDA-MB-231 [16]): 214 nM
- EC50, CellTiter-Glo (HCC1599 [29]): 1670 nM
- EC50, CellTiter-Glo (MDA-MB-231 [31]): 313 nM
SMILES: Cn1cnc2c(F)c(Nc3ccc(Br)cc3Cl)c(C(=O)NOCCO)cc21 [Selumetinib]
- EC50, CellTiter-Blue viability (CAL-85-1 [4]): 563 nM
- EC50, CellTiter-Blue viability (DU-4475 [5]): 70.8 nM
- EC50, CellTiter-Blue viability (HDQ-P1 [6]): 159 nM
- EC50, CellTiter-Blue viability (Hs578T [10]): > 10000 nM
- EC50, CellTiter-Blue viability (CAL-120 [11]): 7500 nM
- EC50, CellTiter-Glo (CAL-120 [25]): 9280 nM
- EC50, CellTiter-Glo (DU-4475 [32]): 210 nM
- EC50, CellTiter-Glo (MCF-10A [33]): 20.4 nM
- EC50, CellTox Green (MDA-MB-231 [39]): 724 nM
- EC50, CellTox Green (DU-4475 [43]): 172 nM
- EC50, CellTox Green (HDQ-P1 [40]): 324 nM
- EC50, CellTox Green (MDA-MB-468 [42]): 2460 nM

- EC50, CellTiter-Blue viability (MDA-MB-436 [7]): 667 nM
- EC50, CellTiter-Blue viability (BT-549 [9]): 9860 nM
- EC50, CellTiter-Blue viability (HCC1937 [12]): 6660 nM
- EC50, CellTiter-Blue viability (SK-BR-3 [15]): 9940 nM
- EC50, CellTiter-Blue viability (MDA-MB-231 [16]): 212 nM
- EC50, CellTiter-Blue viability (MDA-MB-468 [17]): 748 nM
- EC50, CellTiter-Glo (MDA-MB-453 [18]): 4690 nM
- EC50, CellTiter-Glo (MDA-MB-436 [19]): 4730 nM
- EC50, CellTiter-Glo (HCC1143 [20]): 4320 nM
- EC50, CellTiter-Glo (BT-549 [21]): 9550 nM
- EC50, CellTiter-Glo (HCC1937 [26]): 729 nM
- EC50, CellTiter-Glo (HCC1599 [29]): 3450 nM
- EC50, CellTiter-Glo (MDA-MB-231 [31]): 491 nM
SMILES: Nc1nc2[nH]cnc2c(=S)[nH]1 [Thioguanine]
- EC50, CellTiter-Blue viability (CAL-148 [2]): 6600 nM
- EC50, CellTiter-Blue viability (CAL-51 [3]): > 10000 nM
- EC50, CellTiter-Blue viability (CAL-85-1 [4]): 1350 nM
- EC50, CellTiter-Blue viability (Hs578T [10]): 6560 nM
- EC50, CellTiter-Blue viability (CAL-120 [11]): 1140 nM
- EC50, CellTiter-Glo (Hs578T [22]): 1350 nM
- EC50, CellTiter-Glo (CAL-148 [23]): 1720 nM
- EC50, CellTiter-Glo (CAL-51 [24]): 2310 nM
- EC50, CellTiter-Glo (CAL-120 [25]): 1320 nM
- EC50, CellTiter-Glo (CAL-85-1 [28]): 841 nM
- EC50, CellTiter-Glo (DU-4475 [32]): 4330 nM

Reference: the supplement of paper PMC4862054
